Data set [1] is described as follows: Solubility in a mixed solvent of 98 vol.% of water and 2 vol.% of ethanol (method of Example 1). Particulars: for solubility: water/ethanol 98:2, organic solvent or mixture. It counts as physicochemical. The method, then:
The conjugate is dissolved at 4.39×10^-5 mole/liter (30 mg/liter) in a mixed solvent of 98 vol.% of water and 2 vol.% of ethanol.
Solubility of dehydroepiandrosterone in the same mixed solvent measured by absorbance at 235 mμ is 0.24×10^-5 mole/liter.

A short description of data set [2]: Solubility of the conjugate in water. It counts as physicochemical. The settings on record: compared with conjugate at 3-position in Example 1.
In data set [3] the test system is antibody which is active to the ketone group at 17-position of dehydroepiandrosterone. Nature of the data set: Competitive immunoassay with tritium-labelled dehydroepiandrosterone bound to antibody. The settings on record: FIG. 1, curves A and B. It counts as binding. The method, then: In order to confirm the presence of C-D complex combined to AP, the combined product was analyzed by a competitive immunoassay method described in Seikagaku Jikken Koza (Biochemical Experiment Hormones (First) Page 217 to 252 (by Nippon Seikagaku Kai) (published by Tokyo Kagaku Dojin in 1977).
Dehydroepiandrosterone labelled by tritium (^3 H) was bound to the antibody which is active to the ketone group at 17-position of dehydroepiandrosterone. The combined product or dehydroepiandrosterone was added to the system of the antibody and the labelled compound to measure the amount of free ^3 H-dehydroepiandrosterone release from the system.

The mark [4] stands for this setting: mixed solvent of 98 vol.% of water and 2 vol.% of ethanol, read-out: Solubility.

≈ marks a conversion by molar mass, not a printed value. Where “and” joins values, the source holds several entries; their conditions need not be identical. Equal values may be shown once. Read-outs that look alike come from different tables or passages of the source.

Turning to `C[C@]12CCC(OC(=O)[C@H]3OC(O)[C@H](N)[C@@H](O)[C@@H]3O)CC1=CC[C@@H]1[C@@H]2CC[C@]2(C)C(=O)CC[C@@H]12` (mixture of isomers) [Example 4, Conjugate of DHS and 2-amino-2-deoxy-α-D-glucuronic acid], the solubility in data set [1] (setting [4]) worked out at 40.2 µM.
With `C[C@]12CC[C@H]3[C@@H](CC=C4C[C@@H](O)CC[C@@]43C)[C@@H]1CC[C@@H]2OC(=O)COC(=O)[C@H]1O[C@@H](O[C@H]2[C@@H](O)[C@@H](CO)OC(O)[C@@H]2N)[C@H](O)[C@@H](O)[C@@H]1O` (mixture of isomers) [Example 3, Conjugate of dehydroepiandrosterone (hereinafter referring as to DHS) and chondrosine at 17-position with a binding agent of bromoacetyl bromide], the “solubility of the conjugate in water” value in data set [2] was “substantially same with that of the conjugate at 3-position in Example 1”.
Consider `C[C@]12CC[C@H](O)CC1=CC[C@@H]1[C@@H]2CC[C@]2(C)C(=O)CC[C@@H]12` [dehydroepiandrosterone, 3β-hydroxy-5-androsten-17-one, reference compound], for which the solubility in data set [1] (same mixed solvent, measured by absorbance at 235 mμ, read-out: Solubility of dehydroepiandrosterone) amounted to 2.4 µM (≈ 0.692 µg/mL). The “amount of free ^3 H-dehydroepiandrosterone released / binding to the antibody” value in data set [3] is given as “the amount of free ^3 H-dehydroepiandrosterone was increased by the addition of the combined product or dehydroepiandrosterone whereby the their binding to the antibody is found”.
As to `C[C@]12CC[C@H](OC(=O)COC(=O)[C@H]3O[C@@H](O[C@H]4[C@@H](O)[C@@H](CO)OC(O)[C@@H]4N)[C@H](O)[C@@H](O)[C@@H]3O)CC1=CC[C@@H]1[C@@H]2CC[C@]2(C)C(=O)CC[C@@H]12` (stereo partly drawn) [Example 1, conjugate of 3β-hydroxy-5-androsten-17-one(dehydroepiandrosterone) at 3-position and 2-amino-2-deoxy-3-O-β-glucopyranurosyl-D-galactose (chondrosine) at 6-position with a binding agent of bromoacetyl bromide], the “solubility of the conjugate relative to the non-conjugate dehydroepiandrosterone” value in data set [1] (versus dehydroepiandrosterone, same mixed solvent) is recorded as “more than 18 times”. Besides, the solubility in data set [1] (setting [4]) is 43.9 µM and 30 µg/mL.
As for `C[C@]12CC[C@@H]3c4ccc(O)cc4CC[C@H]3[C@@H]1CC[C@@H]2OC(=O)COC(=O)[C@H]1O[C@@H](O[C@H]2[C@@H](O)[C@@H](CO)OC(O)[C@@H]2N)[C@H](O)[C@@H](O)[C@@H]1O` (stereo partly drawn) [Example 2, conjugate of 1,3,5(10)-estratriene-3,17β-diol (estradiol) and chondrosine at 17-position with a binding agent of bromoacetyl bromide], the “solubility of the product relative to that of estradiol” value in data set [1] (versus estradiol, method of Example 1) is on record as “about 20 times”. For the same compound, the solubility in data set [1] (setting [4]) came out at 65 µM.

These data come from patent publication US4296233A, “Conjugate of amino sugar-steroid hormone” (Kureha Kagaku Kogyo Kabushiki Kaisha, priority 1978, dated 1981).
